Calls of active or inactive are those of the source. The rule behind the calls is not given here.
How the values were obtained:
[1] = Downregulation of REST protein expression in HEK293 cells incubated for 3 days with media replenishment for every 24 hrs by immunoblot analysis; assay type: functional, cell-based; details: Homo sapiens
[2] = Upregulation of DYRK1a mRNA expression in HEK293 cells assessed as fold increase by qRT-PCR analysis; assay type: functional, Homo sapiens
[3] = Downregulation of REST protein expression in HEK293 cells at 5 uM incubated for 3 days with media replenishment for every 24 hrs by immunoblot analysis relative to control; assay type: functional, Homo sapiens; details: time 3 day
[4] = Upregulation of USP37 mRNA expression in HEK293 cells assessed as fold increase by qRT-PCR analysis; assay type: functional, Homo sapiens
HEK293 [5] = test: Recovery of REST protein expression in HEK293 cells at 10 uM incubated for 2 days with media replenishment for every 24 hrs followed by compound washout and measured after 3 days by immunoblot analysis relative to control; assay type: functional, Homo sapiens; details: time 2 day
Homo sapiens [6] = organism: Homo sapiens; test: Covalent binding affinity to human SCP1 C92 mutant assessed as covalent adduct formation incubated for overnight by MALDI-TOF analysis
[7] = target: T1, Receptor-type tyrosine-protein phosphatase C (Homo sapiens) (UniProt P08575); test: Inhibition of CD45 (unknown origin) at 25 to 30 uM; details: dose 25-30 µM
T1 sequence (whole entry): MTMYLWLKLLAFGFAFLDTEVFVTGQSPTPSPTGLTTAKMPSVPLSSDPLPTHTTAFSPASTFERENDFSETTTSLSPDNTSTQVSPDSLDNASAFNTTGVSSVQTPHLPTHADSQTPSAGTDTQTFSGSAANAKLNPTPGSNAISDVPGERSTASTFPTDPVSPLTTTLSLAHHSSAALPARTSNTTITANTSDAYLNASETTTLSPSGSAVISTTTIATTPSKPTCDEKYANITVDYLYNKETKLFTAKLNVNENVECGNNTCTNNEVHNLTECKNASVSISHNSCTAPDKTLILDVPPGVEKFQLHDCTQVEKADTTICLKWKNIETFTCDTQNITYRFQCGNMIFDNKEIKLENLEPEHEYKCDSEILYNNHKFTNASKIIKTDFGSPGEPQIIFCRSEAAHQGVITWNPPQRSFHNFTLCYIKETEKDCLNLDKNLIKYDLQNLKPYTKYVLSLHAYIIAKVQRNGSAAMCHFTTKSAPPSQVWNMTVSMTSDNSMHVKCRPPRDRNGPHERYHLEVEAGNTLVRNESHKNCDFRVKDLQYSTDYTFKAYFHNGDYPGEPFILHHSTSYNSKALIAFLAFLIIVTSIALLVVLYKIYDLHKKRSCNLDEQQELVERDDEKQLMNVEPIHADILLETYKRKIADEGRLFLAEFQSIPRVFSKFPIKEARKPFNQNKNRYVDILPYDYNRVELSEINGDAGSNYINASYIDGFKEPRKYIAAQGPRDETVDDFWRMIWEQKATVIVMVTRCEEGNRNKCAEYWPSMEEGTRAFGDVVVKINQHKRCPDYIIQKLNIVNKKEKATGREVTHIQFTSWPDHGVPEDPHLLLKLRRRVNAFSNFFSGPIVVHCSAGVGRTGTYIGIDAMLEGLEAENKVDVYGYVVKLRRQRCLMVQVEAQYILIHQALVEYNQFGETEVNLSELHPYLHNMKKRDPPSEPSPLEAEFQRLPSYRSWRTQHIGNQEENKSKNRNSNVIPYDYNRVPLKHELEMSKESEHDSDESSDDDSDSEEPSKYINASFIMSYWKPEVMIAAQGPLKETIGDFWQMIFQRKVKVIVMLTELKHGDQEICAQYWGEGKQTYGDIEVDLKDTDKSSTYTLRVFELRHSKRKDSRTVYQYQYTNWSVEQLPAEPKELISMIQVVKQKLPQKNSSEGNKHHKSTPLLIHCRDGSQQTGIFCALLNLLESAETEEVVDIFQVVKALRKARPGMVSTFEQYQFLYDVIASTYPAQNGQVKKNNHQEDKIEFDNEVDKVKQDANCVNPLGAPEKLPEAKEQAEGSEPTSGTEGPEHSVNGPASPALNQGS

Homo sapiens [8] = organism: Homo sapiens; test: Covalent inhibition of human SCP1 C92S mutant using pNPP as substrate preincubated for 0.5 to 8 hrs followed by substrate addition by absorbance based analysis; details: time 0.5-8 hrs
[9] = Downregulation of REST protein expression in HEK293 cells at 10 uM incubated for 6 hrs by immunoblot analysis relative to control; assay type: functional, Homo sapiens
[10] = Upregulation of CELSR3 mRNA expression in HEK293 cells assessed as fold increase by qRT-PCR analysis; assay type: functional, Homo sapiens
[11] = Upregulation of SCN2 mRNA expression in HEK293 cells assessed as fold increase by qRT-PCR analysis; assay type: functional, Homo sapiens
[12] = target: T2, Tyrosine-protein phosphatase non-receptor type 1 (Homo sapiens) (UniProt P18031); test: Inhibition of human PTP1B (1 to 321 residues) expressed in Escherichia coli BL21 (DE3) using pNPP as substrate at up to 200 uM preincubated for 4 hrs followed by substrate addition by absorption based analysis; details: dose microM <=200, time 4.0 hrs
T2 sequence (whole entry): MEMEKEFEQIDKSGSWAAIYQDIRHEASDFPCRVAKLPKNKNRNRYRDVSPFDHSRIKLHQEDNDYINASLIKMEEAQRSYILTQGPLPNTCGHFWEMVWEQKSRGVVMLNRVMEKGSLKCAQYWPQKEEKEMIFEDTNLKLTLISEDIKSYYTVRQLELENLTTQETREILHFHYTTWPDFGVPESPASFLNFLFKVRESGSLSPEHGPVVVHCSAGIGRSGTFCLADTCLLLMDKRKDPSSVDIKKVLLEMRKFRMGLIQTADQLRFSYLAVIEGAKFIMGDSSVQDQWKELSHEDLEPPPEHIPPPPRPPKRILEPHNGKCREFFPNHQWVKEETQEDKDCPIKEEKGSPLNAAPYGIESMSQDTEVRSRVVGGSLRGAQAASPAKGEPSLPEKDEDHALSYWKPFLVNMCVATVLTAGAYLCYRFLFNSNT

Homo sapiens [13] = organism: Homo sapiens; test: Covalent binding affinity to human SCP1 C181A mutant assessed as covalent adduct formation incubated for overnight by MALDI-TOF analysis
Homo sapiens [14] = organism: Homo sapiens; test: Inhibition of PP1 (unknown origin) using pNPP as substrate incubated for 4 hrs by absorbance based analysis
Homo sapiens [15] = organism: Homo sapiens; test: Covalent inhibition of human SCP1 C148A mutant using pNPP as substrate preincubated for 0.5 to 8 hrs followed by substrate addition by absorbance based analysis; details: time 0.5-8 hrs
HEK293 [16] = test: Downregulation of REST protein expression in HEK293 cells at 10 uM incubated for 48 to 72 hrs by immunoblot analysis; assay type: functional, cell-based; details: Homo sapiens, time lower […], time upper 72.0 hrs
[17] = system: Schizosaccharomyces pombe; test: Inhibition of Schizosaccharomyces pombe wild type FCP1 (148 to 641 residues) assessed as reduction in enzymatic activity using pNPP as substrate at 100 uM measured up to 18 hrs by absorbance based assay relative to control; details: time hrs <=18
HEK293 [18] = test: Recovery of REST protein expression in HEK293 cells at 10 uM incubated for 2 days with media replenishment for every 24 hrs followed by compound washout and measured after 12 hrs by immunoblot analysis relative to control; assay type: functional, Homo sapiens; details: time 2 day
[19] = Downregulation of REST protein expression in HEK293 cells at 10 uM incubated for 12 hrs by immunoblot analysis relative to control; assay type: functional, Homo sapiens
[20] = target: Dual specificity protein phosphatase 3 (Homo sapiens) (UniProt P51452); test: Inhibition of VHR (unknown origin) at 25 to 30 uM; details: dose 25-30 µM
[21] = Downregulation of REST protein expression in HEK293 cells transfected with wild type SCP1 at 10 uM incubated for 48 hrs with media replenishment for every 24 hrs by immunoblot analysis relative to control; assay type: functional, Homo sapiens
HEK293 [22] = test: Recovery of REST protein expression in HEK293 cells at 10 uM incubated for 2 days with media replenishment for every 24 hrs followed by compound washout and measured after 24 to 48 hrs by immunoblot analysis relative to control; assay type: functional, Homo sapiens; details: time 2 day
[23] = Downregulation of REST protein expression in HEK293 cells at 10 uM incubated for 3 days with media replenishment for every 24 hrs by immunoblot analysis relative to control; assay type: functional, Homo sapiens; details: time 3 day
[24] = system: Schizosaccharomyces pombe; test: Time dependent inhibition of Schizosaccharomyces pombe wild type FCP1 (148 to 641 residues) using pNPP as substrate measured upto 18 hrs by absorbance based assay; details: time hrs <=18
[25] = target: T3, Tyrosine-protein phosphatase non-receptor type 11 (Homo sapiens) (UniProt Q06124); test: Inhibition of SHP2 (unknown origin) at 25 to 30 uM; details: dose 25-30 µM
T3 sequence (whole entry): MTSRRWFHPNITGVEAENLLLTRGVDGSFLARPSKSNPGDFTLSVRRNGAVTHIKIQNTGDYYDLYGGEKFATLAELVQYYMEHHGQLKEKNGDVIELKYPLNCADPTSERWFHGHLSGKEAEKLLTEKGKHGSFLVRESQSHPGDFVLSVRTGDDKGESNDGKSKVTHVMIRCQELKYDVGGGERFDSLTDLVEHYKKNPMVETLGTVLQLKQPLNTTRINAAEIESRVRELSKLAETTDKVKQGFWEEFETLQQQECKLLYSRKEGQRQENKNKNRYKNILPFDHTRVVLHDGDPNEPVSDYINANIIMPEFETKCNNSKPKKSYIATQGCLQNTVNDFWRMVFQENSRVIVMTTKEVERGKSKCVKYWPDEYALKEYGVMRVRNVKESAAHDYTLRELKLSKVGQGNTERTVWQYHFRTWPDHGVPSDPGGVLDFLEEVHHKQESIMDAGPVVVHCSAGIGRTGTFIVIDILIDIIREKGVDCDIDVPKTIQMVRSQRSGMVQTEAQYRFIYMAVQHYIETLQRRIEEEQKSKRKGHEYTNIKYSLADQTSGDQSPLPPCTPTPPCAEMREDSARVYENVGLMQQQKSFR

[26] = Downregulation of REST protein expression in HEK293 cells at 3 uM incubated for 3 days with media replenishment for every 24 hrs by immunoblot analysis relative to control; assay type: functional, Homo sapiens; details: time 3 day
[27] = target: T4, Tyrosine-protein phosphatase non-receptor type 2 (Homo sapiens) (UniProt P17706); test: Inhibition of TCPTP (unknown origin) at 25 to 30 uM; details: dose 25-30 µM
T4 sequence (whole entry): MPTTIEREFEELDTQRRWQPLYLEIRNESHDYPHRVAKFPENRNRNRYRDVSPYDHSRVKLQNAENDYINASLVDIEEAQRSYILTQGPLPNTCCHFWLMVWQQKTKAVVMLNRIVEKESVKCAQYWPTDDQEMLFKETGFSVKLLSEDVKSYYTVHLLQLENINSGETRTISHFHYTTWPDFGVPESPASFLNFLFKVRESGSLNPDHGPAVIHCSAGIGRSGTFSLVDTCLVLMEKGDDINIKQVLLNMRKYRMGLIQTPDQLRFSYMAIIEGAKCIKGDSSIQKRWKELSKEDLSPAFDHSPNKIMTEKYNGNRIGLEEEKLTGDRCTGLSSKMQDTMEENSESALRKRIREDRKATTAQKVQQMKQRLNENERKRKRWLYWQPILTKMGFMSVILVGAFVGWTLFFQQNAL

[28] = target: T5, Tyrosine-protein phosphatase non-receptor type 22 (Homo sapiens) (UniProt Q9Y2R2); test: Inhibition of LYP (unknown origin) at 25 to 30 uM; details: dose 25-30 µM
T5 sequence (whole entry): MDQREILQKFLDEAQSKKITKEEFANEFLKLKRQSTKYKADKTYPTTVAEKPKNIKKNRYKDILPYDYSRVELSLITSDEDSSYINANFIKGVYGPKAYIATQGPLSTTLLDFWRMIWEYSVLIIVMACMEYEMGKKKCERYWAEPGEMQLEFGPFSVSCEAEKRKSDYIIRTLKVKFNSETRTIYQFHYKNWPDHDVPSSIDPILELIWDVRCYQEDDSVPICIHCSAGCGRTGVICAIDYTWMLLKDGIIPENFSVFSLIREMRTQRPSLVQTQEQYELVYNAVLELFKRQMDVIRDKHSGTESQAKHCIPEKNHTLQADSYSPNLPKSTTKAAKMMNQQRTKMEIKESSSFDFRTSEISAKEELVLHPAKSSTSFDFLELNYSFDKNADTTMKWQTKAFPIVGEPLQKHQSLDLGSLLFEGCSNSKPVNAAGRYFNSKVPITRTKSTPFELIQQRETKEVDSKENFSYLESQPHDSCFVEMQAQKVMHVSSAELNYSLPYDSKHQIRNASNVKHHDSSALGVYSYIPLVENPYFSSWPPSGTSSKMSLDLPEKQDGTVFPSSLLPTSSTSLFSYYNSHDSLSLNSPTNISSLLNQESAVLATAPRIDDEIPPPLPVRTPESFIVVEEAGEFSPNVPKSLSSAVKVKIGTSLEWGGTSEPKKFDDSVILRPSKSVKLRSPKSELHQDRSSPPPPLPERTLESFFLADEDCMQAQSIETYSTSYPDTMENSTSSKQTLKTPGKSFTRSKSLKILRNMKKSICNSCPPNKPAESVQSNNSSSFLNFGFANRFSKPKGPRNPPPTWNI

[29] = Upregulation of ELAVL1 mRNA expression in HEK293 cells assessed as fold increase by qRT-PCR analysis; assay type: functional, Homo sapiens
Homo sapiens [30] = organism: Homo sapiens; test: Covalent inhibition of human SCP1 C181A mutant using pNPP as substrate preincubated for 0.5 to 8 hrs followed by substrate addition by absorbance based analysis; details: time 0.5-8 hrs

Sequence of Dual specificity protein phosphatase 3 (Homo sapiens) (P51452 whole entry, looked up): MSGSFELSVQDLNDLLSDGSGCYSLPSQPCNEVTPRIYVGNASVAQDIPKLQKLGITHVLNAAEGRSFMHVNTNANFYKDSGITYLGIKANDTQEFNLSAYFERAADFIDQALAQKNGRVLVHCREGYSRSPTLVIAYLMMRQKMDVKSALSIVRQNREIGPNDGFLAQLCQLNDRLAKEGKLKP

O=C(NCCCNS(=O)(=O)c1ccc(OC(F)(F)F)cc1)C1=Cc2ccccc2S1(=O)=O
EC50 [1]: 1500 nM | fold change (FC) [2]: 2 | Activity [3]: 75% | fold change (FC) [4]: 2 | Activity (HEK293 [5]): 77% | Activity (Homo sapiens [6]): Active | inhibition [7]: inactive | inhibition (Homo sapiens [8]): inactive | Activity [9]: 60% | fold change (FC) [10]: 2 | fold change (FC) [11]: 2 | inhibition [12]: inactive | Activity (Homo sapiens [13]): inactive | inhibition (Homo sapiens [14]): inactive | inhibition (Homo sapiens [15]): Active | Activity (HEK293 [16]): Active | inhibition [17]: 50% | Activity (HEK293 [18]): 24% | Activity [19]: 20% | inhibition [20]: inactive | Activity [21]: 80% | Activity (HEK293 [22]): 50% | Activity [23]: 7% | inhibition [24]: inactive | inhibition [25]: inactive | Activity [26]: 40% | inhibition [27]: inactive | inhibition [28]: inactive | fold change (FC) [29]: 2 | inhibition (Homo sapiens [30]): Active
